From US4999344A, “Phosphatidyl treatment of rapidly proliferating cells” (priority 1988, dated 1991)

Legend:
[1] = system: N4TG1 neuroblastoma cells; assay: Thymidine uptake (cell viability) by N4TG1 neuroblastoma cells incubated with liposomes; format: cell-based, mouse
Method: Plant PI(S) is from the Sigma Chemical Company and plant PI(A) is from Avanti Polar Lipids, Inc. and ([^14 C]linoleoyl)PI is the synthetic PI.
FIGS. 3a and 3b show the effect of increasing the molar fraction of synthetic PI or animal PI in liposomes on (a) thymidine uptake (FIG. 3a) and myo-inositol uptake (FIG. 3b) by N4TG1 neuroblastoma cells, .circle. 100 μm PI, 200 μm PI, 300 μm PI. Cells were incubated with liposomes made up of the various combinations indicated (mol %) of ([^14 C]linoleoyl)PI and animal PI.
FIGS. 9a, b, c, and d show the effect of inhibitors on PI toxicity to tumor cells.
(§1) Lipids were dried and resuspended exactly as described previously in the Biochem. Biophys. Res. Commun. article. In the use of ([^14 C]linoleoyl)PI, ([^14 C]oleoyl)PI, or ([^14 C]arachidonoyl)PI the phospholipids were used in a 2:1 molar combination with cholesterol. Cholesterol was included in the liposomes in order to minimize the net transfer of cholesterol into or out of the cells. ([^3 H]myo-Inositol)PI was used as a tracer (1%) with bovine liver PI as the bulk phospholipid carrier for forming liposomes. [^3 H]Linoleic acid was used as a tracer (4%) in liposomes containing linoleic acid:PI (yeast or animal): cholesterol, 2:1. It was shown that it is not necessary to have cholesterol present to observe the cytotoxicity.
The N4TG1 mouse neuroblastoma cell line was obtained from Dr. Peter Chiang (Walter Reed Army Institute of Research) and cultured using Dulbecco's minimal essential medium (MEM: Grand Island Biological Co.) containing 10% fetal bovine serum. Cells were routinely started from frozen cultures every 6 weeks in order to assure that the cells used were from low passage cultures.
[methyl-^3 H]Thymidine (New England Nuclear) incorporation was carried out using 96-well plates (Costar). Thymidine incorporation was used as an assay for cell viability, since in the previous studies described in the Biochem. Biophys. Res. Commun. (1983) article, other methods of assessing cell viability, including microscopic evaluation in the presence of trypan blue, gave identical results. Fifty μl of cell suspension (4×10^5 cells/ml) were added to duplicate wells. Approximately 18 hours later 25 μl of the PI-containing liposomes were added to give a final concentration of phospholipid of 200 μM (approximately, 14 nmol/2-3×10^4 cells). At various intervals after PI addition [^3 H]thymidine, 1 μCi/well was added and incubated with the cells for 3 hours. Cells were collected on glass fiber filter mats by a mechanical cell harvester (Skatron, Inc.) using a combination of scraping and fluid turbulence (saline). Filters were dried and the material was solubilized by incubation overnight with NCS tissue solubilizer and counted in the presence of Spectrafluor (Amersham).
In FIGS. 1 and 2 the curves were quite reproducible and representative experiments are shown. Because of fluctuations (<5%) in control values, the data were "normalized" by comparison with daily controls and expressed as "percentage of control in absence of PI." Typical values for uptake of [^3 H]thymidine by controls are shown in the inserts in FIGS. 1 and 2.

HT-144 = assay: Liposomal uptake by normal and tumor cells; format: cell-based, human; conditions: tumor cells HT-144
Method: (§2) Cells were treated with liposomes containing synthetic preparations of PI (left frames) or PC (right frames) containing palmitic acid in the sn-1 position and either [^14 C]linoleic acid in the sn-2 position (FIGS. 5 and 5a) or [^14 C]arachidonic acid in the sn-2 position (FIGS. 6 and 6a) or [^14 C]oleic acid in the sn-2 position (FIGS. 7 and 7a). The liposomes were comprised of the indicated phospholipids (PI or PC) and cholesterol in a molar ratio of 2:1.
(§3) The data in Table 5 was obtained concomitantly with the toxicity studies in FIGS. 5-7a.

N4TG1 = assay: Liposomal uptake by normal and tumor cells; format: cell-based, mouse; conditions: tumor cells N4TG1
Method: (§4) Thymidine uptake is a method of assessing cell viability of cultured cells, and decreased thymidine uptake occurs as a result of cytotoxicity caused by contact with toxic substances. , MRC-5 normal embryonic lung fibroblasts; , W1-38SV/40 transformed embryonic human lung fibroblasts; .quadrature..quadrature., SK-N-MC human glioblastoma cells and , N4TG1 mouse neuroblastoma cells.
as §2, §3

[2] = system: N4TG1 neuroblastoma cells; assay: Fate of liposomal PI after incubation with N4TG1 neuroblastoma cells; format: in vitro ADME, mouse
Description: as §1, with “It was shown that it is not necessary to have cholesterol present to observe the cytotoxicity.” left out
In order to extract lipids, methanol and chloroform were added to cell homogenates to obtain a single phase of CHCl3 :CH3 OH:H2 O (1:2:1 8, v/v) containing 0.1M HCl, according to Bligh and Dyer in Can. […] The lipid compositions of the cell extracts were determined by thin layer chromatography on silica gel precoated sheets (E. M. Reagents; E. Merck, FRG) using the following solvent systems: (a) chloroform:methanol: acetic acid:water, 25:15:4:2 (v/v) (used for phospholipid separation): (b) 1-propanol:4.3M ammonia containing 10 mM EDTA, 65:35 (v/v) (used for PIP and PIP2 separations); and (c) chloroform:acetone, 1:1 (v/v) (used for DG and fatty acid separations). […]

WI-38/SV-40 = assay: Liposomal uptake by normal and tumor cells; format: cell-based, human
Method: as §4, §2, §3

SK-N-MC = assay: Liposomal uptake by normal and tumor cells; format: cell-based, human; conditions: tumor cells SK-N-MC
Method: as §4, §2, §3

MRC-5 = assay: Liposomal uptake by normal and tumor cells; format: cell-based; conditions: normal cells MRC-5
Method: as §4, §2, §3

[3] = system: N4TG1 neuroblastoma cells; assay: Effect on cells by linoleic acid in liposomes made of non-cytotoxic phospholipids (thymidine uptake); format: cell-based, mouse
Description: as §1
The N4TG1 mouse neuroblastoma cell line was obtained from Dr. Peter Chiang (Walter Reed Army Institute of Research) and cultured using Dulbecco's minimal essential medium (MEM: Grand Island Biological Co.) containing 10% fetal bovine serum. […]
[methyl-^3 H]Thymidine (New England Nuclear) incorporation was carried out using 96-well plates (Costar). […] Filters were dried and the material was solubilized by incubation overnight with NCS tissue solubilizer and counted in the presence of Spectrafluor (Amersham). […]
Cellular uptake of linoleic acid was calculated based on uptake of tracer ^3 H-linoleic acid. […]

[4] = system: N4TG1 neuroblastoma cells; assay: Cellular uptake of linoleic acid from liposomes (tracer 3H-linoleic acid); format: cell-based, mouse
Description: as §1
Cellular uptake of linoleic acid was calculated based on uptake of tracer ^3 H-linoleic acid. In Table 1 intracellularly generated free fatty acids occurred at a concentration of 2.2 nmol/8×10^5 cells. […] In the case of liposomes containing yeast PI as the phospholipid, the uptake of linoleic acid was 2.9 nmol/8×10^5 cells and the thymidine incorporation had decreased to 53% of control values. Although toxicity occurred at similar concentrations of fatty acids as were generated intracellularly it must be kept in mind that in the experiment in Table 2 there were also extracellular free fatty acids which could exert effects on the outer surface of the cells.

[5] = system: lung small cell carcinoma cultures (NCI-H128); assay: Toxicity to lung small cell carcinoma cultures, based on thymidine uptake, with inhibitors; set-up: species or system human; conditions: FIGS. 9c and 9d; for blocking of plant PI toxicity / competition: with plant PI
Description: FIGS. 9c and 9d show the effects of inhibitors of phospholipase A2 (quinacrine) or prostaglandin synthesis (eicosanotetraynoic acid) or leukotriene synthesis ([…]) on cytotoxicity induced by liposomes containing plant PI/cholesterol/([^14 C]linoleoyl)PI (2/1/0.01). The NCI-H128 cells are a small cell lung carcinoma cultured cell line
Several specific inhibitors were used with lung small cell carcinoma cultures. […] In humans, this type of lung cancer is fatal very soon after detection.

`CCCCC/C=C\C/C=C\C/C=C\C/C=C\CCC[14C](=O)O[C@H](COC(=O)CCCCCCCCCCCCCCCCC)COP(=O)(O)O[C@@H]1[C@H](O)[C@H](O)[C@@H](O)[C@H](O)[C@H]1O` [([^14 C]arachidonoyl)PI] was tested, and the cytotoxicity [1] was “considerable cytotoxicity”, the Liposomal uptake (HT-144) was 0.55 nMoles of phospholipid/1 × 10^5 cells and the Liposomal uptake (N4TG1) was 0.49 nMoles of phospholipid/1 × 10^5 cells. The Phosphatidylcholine [2] was “Not Detected”, the Liposomal uptake (WI-38/SV-40) was 0.33 nMoles of phospholipid/1 × 10^5 cells and the Liposomal uptake (SK-N-MC) was 0.39 nMoles of phospholipid/1 × 10^5 cells. The Liposomal uptake (MRC-5) was 0.09 nMoles of phospholipid/1 × 10^5 cells.
For `CCCCC/C=C\C/C=C\CCCCCCCC(=O)O` [Linoleic acid, linoleic acid], the “decrease in thymidine incorporation compared with controls” value ([3]; liposomes with animal PI, uptake 2.55 nmol/8×10^5 cells) was 63%, the thymidine incorporation ([3]; liposomes with yeast PI, uptake 2.9 nmol/8×10^5 cells) was 53 % of control values and the “uptake of linoleic acid” value ([4]; 50 μM, Animal Phosphatidylinositol liposomes) was 2.55 nmol/8 × 10^5 cells. The “uptake of linoleic acid” value ([4]; 50 μM, Yeast Phosphatidylinositol liposomes) was 1.8 nmol/8 × 10^5 cells, the “uptake of linoleic acid” value ([4]; 100 μM, Animal Phosphatidylinositol liposomes) was 3.03 nmol/8 × 10^5 cells and the “uptake of linoleic acid” value ([4]; 100 μM, Yeast Phosphatidylinositol liposomes) was 2.9 nmol/8 × 10^5 cells. For the same compound, the “uptake of linoleic acid” value ([4]; 200 μM, Animal Phosphatidylinositol liposomes) was 10.4 nmol/8 × 10^5 cells and the “uptake of linoleic acid” value ([4]; 200 μM, Yeast Phosphatidylinositol liposomes) was 14.8 nmol/8 × 10^5 cells.
With `CCCCCC#CCC#CCC#CCC#CCCCC(=O)O` [eicosanotetraynoic acid] the “blocking of plant PI toxicity / competition” value [5] was “relatively little promise of blocking the toxicity of plant PI”.
With `COc1ccc2c(c1)c(CC(=O)O)c(C)n2C(=O)c1ccc(Cl)cc1` [indomethecin, indomethacin] the “blocking of plant PI toxicity / competition” value [5] was “relatively little promise of blocking the toxicity of plant PI”.
For `CCCCCCCC/C=C\CCCCCCC[14C](=O)O[C@H](COC(=O)CCCCCCCCCCCCCCCCC)COP(=O)(O)O[C@@H]1[C@H](O)[C@H](O)[C@@H](O)[C@H](O)[C@H]1O` [([^14 C]oleoyl)PI, reference compound], the cytotoxicity [1] was “lacked cytotoxicity”, the Liposomal uptake (HT-144) was 0.28 nMoles of phospholipid/1 × 10^5 cells and the Liposomal uptake (N4TG1) was 0.28 nMoles of phospholipid/1 × 10^5 cells. The Liposomal uptake (WI-38/SV-40) was 0.21 nMoles of phospholipid/1 × 10^5 cells, the Liposomal uptake (SK-N-MC) was 0.28 nMoles of phospholipid/1 × 10^5 cells and the Liposomal uptake (MRC-5) was 0.13 nMoles of phospholipid/1 × 10^5 cells.
`CCN(CC)CCCC(C)Nc1c2ccc(Cl)cc2nc2ccc(OC)cc12` (stereo not drawn) [Quinacrine, quinacrine, reference compound] was tested, and the “effect of quinacrine on cytotoxicity of plant PI” value ([1]; in conjunction with plant PI, FIG. 9b) was “reversal of cytotoxicity”, the “cytotoxicity of quinacrine alone” value ([1]; tumor or normal cells, FIG. 9a) was “somewhat cytotoxic” and the toxicity [5] was “extremely toxic”. For the same compound, the “blocking of plant PI toxicity / competition” value [5] was “No competition was observed”.
